Holding throughout (assay type): cell-based
Assay [1] has as its system Cryptococcus neoformans spore germination. Nature of the assay: High throughput nanoluciferase screen of spore germination (L1300 Selleck FDA-Approved Drug Library). An excerpt: (§1) To identify inhibitors of Cryptococcus neoformans spore germination, a high throughput screen was developed that utilizes a nanoluciferase construct to monitor whether spores germinate in the presence of inhibitor. Briefly a protein luciferase construct was created resulting in a low luciferase signal for non-germinated spores and a high signal from germinated and replicating cells. The screen was coupled with OD600 readings to monitor the ability of compounds to inhibit yeast replication. The examples focused on FDA-approved drugs, as these drugs have the potential of being repurposed into antifungal therapeutics. To determine whether any FDA-approved drugs were able to inhibit Cryptococcus neoformans spore germination and yeast replication, the aforementioned high throughput screen was performed on the L1300 Selleck FDA-Approved Drug Library containing an array of 1108 compounds. This library of compounds is available commercially from Selleck Chemicals, 14408 W Sylvanfield Drive, Houston, Tex. 77014, USA.
(§2) The screening was successful at identifying known antifungal drugs as inhibitors of yeast replication as indicated by an OD600 signal of less than 75% of the negative control (Table 2). For the purpose of these examples, antifungal drugs were defined as any FDA-approved drug used in the treatment of fungal infections. Of these 23 known antifungal drugs, only six (6) were identified as inhibitors of spore germination, indicated by a luciferase signal of less than 30% of the negative control.

For assay [2], the system named is Cryptococcus neoformans yeast replication. The conditions noted are these: signal relative to negative control.
Description: as §1, §2

The subject of assay [3] is Cryptococcus neoformans (JEC21). Nature of the assay: MIC/MFC experiments (EUCAST based), JEC21. Particulars: for Ability to inhibit yeast growth / replication in MIC and MFC testing: yeast strain not given, data not shown for non-inhibitors. Here is the method:
(§3) All minimum inhibitory concentration (MIC) experiments were based on EUCAST methodology. […] After 6-hour incubation, yeast cells were washed in 1×PBS and quantified using a hemocytometer. […] Cryptococcus neoformans cells were incubated for 2 days at 30° C. while Candida albicans strains were incubated for 2 days at 35° C. OD600 readings were used to assess the MIC values for each drug. To determine minimum fungicidal concentrations (MFC) values, 3 μL per well were plated on YPD and allowed to grow for 2 days.

Assay [4] relates to Cryptococcus neoformans (H99). The assay is described as follows: MIC/MFC experiments (EUCAST based), H99. The conditions noted are these: Cryptococcus neoformans, 48 h. Here is the method: as §3
The subject of assay [5] is Candida albicans (SC5314). Nature of the assay: MIC/MFC experiments (EUCAST based), Candida albicans. The conditions noted are these: SC5314, 48 h. As to the method: as §3
Setting [6] is: Table 2, antifungal drugs, signal relative to negative control, less than 30% = inhibitor of germination.
Setting [7] is: Table 2, antifungal drugs, less than 75% = inhibitor of yeast replication.
The mark [8] stands for this setting: Table 3, other FDA-approved drugs.
Where [9] appears, read: Table 3, other FDA-approved drugs, signal relative to negative control.

Structures can show the parent of a compound that is named as a salt. Where two headings read alike, the source gives them in different places.

In the case of `CCC(C)(C)c1ccc(CC(C)CN2C[C@@H](C)O[C@@H](C)C2)cc1` (stereo partly drawn) [Amorolfine HCl], the “Germination Percent Luciferase Signal” value in assay [1] (setting [6]) was determined as 88.6%. Besides, in assay [2] (setting [7]), the “Replication Percent OD600” value is listed as 41.4%.

As to `C[C@@H]1[C@H](O)[C@@H](C)/C=C/C=C/C=C/C=C/C=C/C=C/C=C/[C@H](O[C@@H]2O[C@H](C)[C@@H](O)[C@H](N)[C@@H]2O)C[C@@H]2O[C@](O)(C[C@@H](O)C[C@@H](O)[C@H](O)CC[C@@H](O)C[C@@H](O)CC(=O)O[C@H]1C)C[C@H](O)[C@H]2C(=O)O` [Amphotericin B], in assay [1] (setting [6]), the “Germination Percent Luciferase Signal” value is 84.6%. The “Replication Percent OD600” value in assay [2] (setting [7]) came out at 45.7%.

Turning to `CC(C)(C)CC(C)(C)c1ccc(OCCOCC[N+](C)(C)Cc2ccccc2)cc1` [Benzethonium chloride], in assay [1], the “Germination Percent Luciferase Signal” value was 6.9%. Moreover, the “Replication Percent OD600” value in assay [2] (setting [8]) came out at 30.3%.

Regarding `OC(CCN1CCCCC1)(c1ccccc1)C1CC2C=CC1C2` (stereo not drawn) [Biperiden HCl], the “Germination Percent Luciferase Signal” value in assay [1] (setting [9]) was 23.4%. Besides, the “Replication Percent OD600” value in assay [2] (setting [8]) was 56.6%. In addition, the “Ability to inhibit yeast growth / replication in MIC and MFC testing” value in assay [3] is “unable to inhibit yeast growth”.

Turning to `CN(Cc1ccc(C(C)(C)C)cc1)Cc1cccc2ccccc12` [Butenafine HCl], in assay [1] (setting [6]), the “Germination Percent Luciferase Signal” value was found to be 57.5%. For the same compound, the “Replication Percent OD600” value in assay [2] (setting [7]) was found to be 32.9%.

`Clc1ccc(CCC(Cn2ccnc2)Sc2c(Cl)cccc2Cl)cc1` (stereo not drawn) [Butoconazole nitrate]: the “Germination Percent Luciferase Signal” value in assay [1] (setting [6]) is recorded as 41.5%. In addition, in assay [2] (setting [7]), the “Replication Percent OD600” value is 33.4%.

Turning to `CCCCCCCCCCCCCCCC[N+](C)(C)C.[Br-]` [Cetrimonium bromide], the “Germination Percent Luciferase Signal” value in assay [1] (setting [9]) is 4.4%. Moreover, the “Replication Percent OD600” value in assay [2] (setting [8]) was 63.2%.

Regarding `CCCCCCCCCCCCCCCC[n+]1ccccc1` [Cetylpyridinium chloride], the “Germination Percent Luciferase Signal” value in assay [1] worked out at 4.2%. In addition, in assay [2] (setting [8]), the “Replication Percent OD600” value is on record as 31.9%. Besides, the MFC in assay [3] (Cryptococcus neoformans, 48 h) was under 0.78 µg/mL; in assay [4] it was under 0.78 µg/mL; in assay [5], 3.13 µg/mL.

For the compound `CC(C)(C)C(=O)C(Oc1ccc(Cl)cc1)n1ccnc1` (stereo not drawn) [Climbazole], the “Germination Percent Luciferase Signal” value in assay [1] (setting [6]) is 151.5%. In assay [2] (setting [7]), the “Replication Percent OD600” value turned out to be 38.9%.

With `Clc1ccccc1C(c1ccccc1)(c1ccccc1)n1ccnc1` [Clotrimazole], the “Germination Percent Luciferase Signal” value in assay [1] (setting [6]) worked out at 65.9%. Further, the “Replication Percent OD600” value in assay [2] (setting [7]) came out at 34.1%.

For the compound `Cc1cc(N)c2ccccc2[n+]1CCCCCCCCCC[n+]1c(C)cc(N)c2ccccc21` [Dequalinium chloride], in assay [1] (setting [9]), the “Germination Percent Luciferase Signal” value was determined as 22.3%. Moreover, the “Replication Percent OD600” value in assay [2] (setting [8]) is listed as 47.9%.

In the case of `CCCCCCCCCCCC[N+](C)(C)CCOc1ccccc1` [Domiphen bromide], the “Germination Percent Luciferase Signal” value in assay [1] (setting [9]) is recorded as 4.4%. In addition, the “Replication Percent OD600” value in assay [2] (setting [8]) is given as 63.9%.

In the case of `C=C1/C(=C\C=C2/CCC[C@]3(C)[C@@H]([C@H](C)/C=C/[C@H](C)C(C)C)CC[C@@H]23)C[C@@H](O)C[C@@H]1O` [Doxercalciferol], the “Germination Percent Luciferase Signal” value in assay [1] (setting [9]) was found to be 17.1%. In assay [2] (setting [8]), the “Replication Percent OD600” value is listed as 55.2%.

In the case of `CO[C@H]1C[C@@H]2CC[C@@H](C)[C@@](O)(O2)C(=O)C(=O)N2CCCC[C@H]2C(=O)O[C@H]([C@H](C)C[C@@H]2CC[C@@H](OCCO)[C@H](OC)C2)CC(=O)[C@H](C)/C=C(\C)[C@@H](O)[C@@H](OC)C(=O)[C@H](C)C[C@H](C)/C=C/C=C/C=C/1C` [Everolimus], in assay [1] (setting [9]), the “Germination Percent Luciferase Signal” value came to 15.7%. The “Replication Percent OD600” value in assay [2] (setting [8]) is recorded as 67.7%.

As to `O=C1[C@H](CC[C@H](O)c2ccc(F)cc2)[C@@H](c2ccc(O)cc2)N1c1ccc(F)cc1` [Ezetimibe], the “Germination Percent Luciferase Signal” value in assay [1] (setting [9]) is 22.0%. Further, the “Replication Percent OD600” value in assay [2] (setting [8]) is 51.3%. In assay [3], the “Ability to inhibit yeast growth / replication in MIC and MFC testing” value is given as “unable to inhibit yeast growth”.

Take `Clc1ccc(C(Cn2ccnc2)OCc2ccc(Sc3ccccc3)cc2)c(Cl)c1` (stereo not drawn) [Fenticonazole nitrate]: the “Germination Percent Luciferase Signal” value in assay [1] (setting [6]) was found to be 49.1%. For the same compound, the “Replication Percent OD600” value in assay [2] (setting [7]) amounted to 36.4%.

With `OC(Cn1cncn1)(Cn1cncn1)c1ccc(F)cc1F` [Fluconazole], the “Germination Percent Luciferase Signal” value in assay [1] (setting [6]) worked out at 84.0%. For the same compound, in assay [2] (setting [7]), the “Replication Percent OD600” value is recorded as 72.2%.

On to `Clc1ccc(C(Cn2ccnc2)OCc2c(Cl)cccc2Cl)c(Cl)c1` (stereo not drawn) [Isoconazole nitrate], for which, in assay [1] (setting [6]), the “Germination Percent Luciferase Signal” value came out at 16.8%. The “Replication Percent OD600” value in assay [2] (setting [7]) is listed as 37.0%.

Consider `CCC(C)n1ncn(-c2ccc(N3CCN(c4ccc(OCC5COC(Cn6cncn6)(c6ccc(Cl)cc6Cl)O5)cc4)CC3)cc2)c1=O` (stereo not drawn) [Itraconazole], for which, in assay [1] (setting [6]), the “Germination Percent Luciferase Signal” value was found to be 159.6%. In addition, in assay [2] (setting [7]), the “Replication Percent OD600” value came out at 58.9%.

For `CC(=O)N1CCN(c2ccc(OCC3COC(Cn4ccnc4)(c4ccc(Cl)cc4Cl)O3)cc2)CC1` (stereo not drawn) [Ketoconazole], in assay [1] (setting [6]), the “Germination Percent Luciferase Signal” value is recorded as 154.8%. Also, the “Replication Percent OD600” value in assay [2] (setting [7]) amounted to 35.4%.

As to `COc1cccc(N(C)C(=S)Oc2ccc3c(c2)CCCC3)n1` [Liranaftate], in assay [1] (setting [6]), the “Germination Percent Luciferase Signal” value is 64.8%. Moreover, the “Replication Percent OD600” value in assay [2] (setting [7]) is reported as 37.6%.

On to `Clc1ccc(COC(Cn2ccnc2)c2ccc(Cl)cc2Cl)c(Cl)c1` (stereo not drawn) [Miconazole nitrate], for which the “Germination Percent Luciferase Signal” value in assay [1] (setting [6]) came to 25.5%. In addition, in assay [2] (setting [7]), the “Replication Percent OD600” value was 38.2%.

Turning to `CN(C/C=C/c1ccccc1)Cc1cccc2ccccc12` [Naftifine HCl], the “Germination Percent Luciferase Signal” value in assay [1] (setting [6]) is reported as 55.5%. The “Replication Percent OD600” value in assay [2] (setting [7]) is listed as 34.5%.

With `C=CC(=O)N1CCC[C@@H](n2nc(-c3ccc(Oc4ccccc4)cc3)c3c(N)ncnc32)C1` [PCl-32765], the “Germination Percent Luciferase Signal” value in assay [1] (setting [9]) came to 10.6%. Moreover, in assay [2] (setting [8]), the “Replication Percent OD600” value is given as 70.3%.

As to `N=C(N)c1ccc(OCCCCCOc2ccc(C(=N)N)cc2)cc1` [Pentamidine HCl], the “Germination Percent Luciferase Signal” value in assay [1] (setting [6]) is 6.5%. The “Replication Percent OD600” value in assay [2] (setting [7]) amounted to 38.3%.

In the case of `CC[C@@H]([C@H](C)O)n1ncn(-c2ccc(N3CCN(c4ccc(OC[C@@H]5CO[C@@](Cn6cncn6)(c6ccc(F)cc6F)C5)cc4)CC3)cc2)c1=O` [Posaconazole], the “Germination Percent Luciferase Signal” value in assay [1] (setting [6]) came out at 167.2%. The “Replication Percent OD600” value in assay [2] (setting [7]) came to 46.7%.

Regarding `CO[C@H]1C[C@@H]2CC[C@@H](C)[C@@](O)(O2)C(=O)C(=O)N2CCCC[C@H]2C(=O)O[C@H]([C@H](C)C[C@@H]2CC[C@@H](O)[C@H](OC)C2)CC(=O)[C@H](C)/C=C(\C)[C@@H](O)[C@@H](OC)C(=O)[C@H](C)C[C@H](C)/C=C/C=C/C=C/1C` [Rapamycin], the “Germination Percent Luciferase Signal” value in assay [1] (setting [9]) is 18.5%. Moreover, the “Replication Percent OD600” value in assay [2] (setting [8]) is given as 61.8%.

In the case of `Clc1ccc(CSC(Cn2ccnc2)c2ccc(Cl)cc2Cl)cc1` (stereo not drawn) [Sulconazole nitrate], the “Germination Percent Luciferase Signal” value in assay [1] (setting [6]) came out at 57.8%. In assay [2] (setting [7]), the “Replication Percent OD600” value is 40.9%.

On to `Clc1ccc(C(Cn2ccnc2)OCc2ccsc2Cl)c(Cl)c1` (stereo not drawn) [Tioconazoie], for which the “Germination Percent Luciferase Signal” value in assay [1] (setting [6]) was 25.0%. The “Replication Percent OD600” value in assay [2] (setting [7]) was 36.8%.

As for `Cc1cccc(N(C)C(=S)Oc2ccc3ccccc3c2)c1` [Tolnaftate], in assay [1] (setting [6]), the “Germination Percent Luciferase Signal” value turned out to be 60.2%. Besides, the “Replication Percent OD600” value in assay [2] (setting [7]) was found to be 47.3%.

For the compound `C[C@@H](c1ncncc1F)[C@](O)(Cn1cncn1)c1ccc(F)cc1F` [Voriconazole], in assay [1] (setting [6]), the “Germination Percent Luciferase Signal” value came out at 173.9%. Besides, the “Replication Percent OD600” value in assay [2] (setting [7]) is reported as 35.8%.

Consider Caspofungin acetate, for which the “Germination Percent Luciferase Signal” value in assay [1] (setting [6]) is given as 89.7%. The “Replication Percent OD600” value in assay [2] (setting [7]) was 48.5%.

(Values after patent US11981953B2, “Method to screen compounds for antifungal activity and pharmaceutical compositions and methods to treat fungal diseases by inhibiting spore germination” (WISCONSIN ALUMNI RESEARCH FOUNDATION, priority 2018, dated 2024).)
